Data from patent US20240368163A1, “COMPOUNDS AND METHODS FOR MODULATING SPLICING” (REMIX THERAPEUTICS INC., priority 2021, published 2024).

Legend:
[1] = Transwell assay for membrane efflux and permeability; format: in vitro ADME, Canine; conditions: dog; MDCK-BCRP or MDCKII-MDR1 transwell, test compound 1 μM, 2 hours at 37° C.
Source text: Compounds described herein were screened for cell membrane permeability and efflux in a transwell assay using Madin-Darby Canine Kidney (MDCK) cells expressing Breast Cancer Resistance Protein (BCRP) or subclone MDCKII cells expressing Multidrug Resistance Protein 1 (MDR1).
MDCK-BCRP or MDCKII-MDR1 Cells: The Netherlands Cancer Institute, High Glucose Dulbecco's Modified Eagle's Medium (DMEM): Gibco/Thermo Fisher Scientific, Fetal Bovine Serum (FBS): Coming, Hank's Balanced Salt Solution (HBSS) and Trypsin/EDTA: Gibco/Thermo Fisher Scientific, HTS Transwell-96 Well Permeable Supports: Coming Corporation, Millicell Epithelial Volt-Ohm: Millipore, Cellometer® Vision: Nexcelom Bioscience LLC, Infinite 200 PRO microplate reader: Tecan, MTS2/4 orbital shaker: IKA Labortechnik, HEPES/Penicillin/Streptomycin: Solarbio.
MDCK-BCRP or MDCKII-MDR1 cells were seeded to each of the wells of the transwell plate at a density of 1.6×10^6 cells/mL and the plate was incubated for 4-8 days with medium changes every two days. To perform the drug transport assay, cell monolayers were first washed three times with pre-warmed HBSS and then incubated with gentle shaking (150 rpm) for 30 min at 37° C. Stock solutions of test compounds (e.g., exemplary compounds of Formulas (I), (II), and (III)) and control compounds (e.g., metoprolol, prazosin, and/or imatinib) were prepared in DMSO and adjusted to a working solution using HBSS. The final concentration of test compounds was 1 μM with DMSO; 0.5%. The plates were incubated at 37° C. for 2 hours.

SMN2 = test: Splicing RT-qPCR panel, SMN2 canonical junction (CJ) mRNA; format: cell-based, human; conditions: Homo sapiens, RT-qPCR panel, canonical junction mRNA; compound concentration having 50% response in CJ decrease; read-out: SMN2 IC50 (decrease in CJ mRNA levels)
Method in brief: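 A673 or K562 cells were treated 24 h at 37 °C with an 11-point 3-fold dilution series (top 10 uM final, DMSO ≤0.25%). Lysates underwent one-step RT-qPCR for canonical (CJ) and alternative (AJ) junctions; Ct normalized to GAPDH, GUSB or PPIA and DMSO control via 2^(−ΔΔCt), expressed as percentage response.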

Q: With CN(c1ccc(-c2ccc(-c3cn[nH]c3)c3ncsc23)nn1)[C@@H]1C[C@H]2CC[C@@H](C1)N2 [Compound 213] as the molecule, how does the Papp at 2 h, 1 μM [1] read?
A: The Papp at 2 h, 1 μM was less than 2 ×10⁻⁶ cm/s.

Q: What about the efflux ratio at 2 h, 1 μM [1] of the same molecule?
A: The efflux ratio at 2 h, 1 μM was greater than 5.

Q: What about the IC50 (SMN2) of the same molecule?
A: The IC50 was less than 100 nM.

Q: What does the source list for c1nc2c(-c3cn[nH]c3)ccc(-c3ccc(N[C@@H]4C[C@H]5CCC[C@@H](C4)N5)nn3)c2s1 [Compound 215]?
A: Papp at 2 h, 1 μM [1]: < 2 ×10⁻⁶ cm/s; efflux ratio at 2 h, 1 μM [1]: > 5; IC50 (SMN2): < 100 nM

Q: For Fc1cc(-c2ccc(O[C@@H]3C[C@H]4CC[C@@H](C3)N4)nn2)c2[nH]ncc2c1-c1cn[nH]c1 [Compound 216], which Papp at 2 h, 1 μM [1] is on record?
A: The Papp at 2 h, 1 μM was less than 2 ×10⁻⁶ cm/s.

Q: What about the efflux ratio at 2 h, 1 μM [1] of the same molecule?
A: Its efflux ratio at 2 h, 1 μM is greater than 5.

Q: What about the IC50 (SMN2) of the same molecule?
A: The IC50 was less than 100 nM.

Q: Which Papp at 2 h, 1 μM [1] does the source give for CN(c1ccc(-c2ccc(-c3cn[nH]c3)c3ncsc23)nn1)[C@@H]1C[C@H]2CCC[C@@H](C1)N2 [Compound 226] here?
A: The Papp at 2 h, 1 μM was less than 2 ×10⁻⁶ cm/s.

Q: And the efflux ratio at 2 h, 1 μM [1]?
A: The efflux ratio at 2 h, 1 μM was greater than 5.

Q: What about the IC50 (SMN2) of the same molecule?
A: The IC50 was less than 100 nM.

Q: Which Papp at 2 h, 1 μM [1] does the source give for [2H]C([2H])([2H])N(c1ccc(-c2ccc(-c3cn[nH]c3)c3ncsc23)nn1)[C@@H]1C[C@H]2CCC[C@@H](C1)N2 [Compound 227] here?
A: The Papp at 2 h, 1 μM was less than 2 ×10⁻⁶ cm/s.

Q: What about the efflux ratio at 2 h, 1 μM [1] of the same molecule?
A: The efflux ratio at 2 h, 1 μM was greater than 5.

Q: What about the IC50 (SMN2) of the same molecule?
A: The IC50 was less than 100 nM.

Q: For CCN(c1ccc(-c2ccc(-c3cn[nH]c3)c3ncsc23)nn1)[C@@H]1C[C@H]2CCC[C@@H](C1)N2 [Compound 228], which Papp at 2 h, 1 μM [1] is on record?
A: Its Papp at 2 h, 1 μM is less than 2 ×10⁻⁶ cm/s.

Q: What about the efflux ratio at 2 h, 1 μM [1] of the same molecule?
A: Its efflux ratio at 2 h, 1 μM is greater than 5.

Q: And the IC50 (SMN2)?
A: Its IC50 is less than 100 nM.

Q: Which Papp at 2 h, 1 μM [1] does the source give for CN(c1ccc(-c2ccc(-c3cnn(C)c3)c3cn[nH]c23)nn1)C1CCNCC1 [Compound 242] here?
A: Its Papp at 2 h, 1 μM is less than 2 ×10⁻⁶ cm/s.

Q: And the efflux ratio at 2 h, 1 μM [1]?
A: The efflux ratio at 2 h, 1 μM was greater than 5.

Q: What about the IC50 (SMN2) of the same molecule?
A: Its IC50 is 1000 to 10000 nM.

Q: With CN(c1ccc(-c2cc(F)c(-c3cnn(C)c3)c3cn[nH]c23)nn1)[C@@H]1C[C@H]2CC[C@@H](C1)N2 [Compound 291] as the molecule, how does the Papp at 2 h, 1 μM [1] read?
A: The Papp at 2 h, 1 μM was less than 2 ×10⁻⁶ cm/s.

Q: And the efflux ratio at 2 h, 1 μM [1]?
A: The efflux ratio at 2 h, 1 μM was greater than 5.

Q: And the IC50 (SMN2)?
A: The IC50 was less than 100 nM.

Q: For c1n[nH]cc1-c1ccc(-c2ccc(N[C@@H]3C[C@H]4CCC[C@@H](C3)N4)nn2)c2[nH]ncc12 [Compound 294], which Papp at 2 h, 1 μM [1] is on record?
A: The Papp at 2 h, 1 μM was less than 2 ×10⁻⁶ cm/s.

Q: What about the efflux ratio at 2 h, 1 μM [1] of the same molecule?
A: The efflux ratio at 2 h, 1 μM was 1.5 to 5.

Q: What about the IC50 (SMN2) of the same molecule?
A: Its IC50 is less than 100 nM.

Q: Which results are given for CC1(C)CC(Oc2ccc(-c3cc(F)c(-c4cn[nH]c4)c4cn[nH]c34)nn2)CC(C)(C)N1 [Compound 307]?
A: Papp at 2 h, 1 μM [1]: 2 to 6 ×10⁻⁶ cm/s; efflux ratio at 2 h, 1 μM [1]: > 5; IC50 (SMN2): < 100 nM

Q: Which Papp at 2 h, 1 μM [1] does the source give for c1nc2c(-c3cn[nH]c3)ccc(-c3ccc(N(C4CC4)C4C[C@H]5CCC[C@@H](C4)N5)nn3)c2s1 (some centres unmarked) [Compound 311] here?
A: The Papp at 2 h, 1 μM was less than 2 ×10⁻⁶ cm/s.

Q: What about the efflux ratio at 2 h, 1 μM [1] of the same molecule?
A: The efflux ratio at 2 h, 1 μM was greater than 5.

Q: What about the IC50 (SMN2) of the same molecule?
A: Its IC50 is less than 100 nM.

Q: What does the source list for Fc1cc(-c2ccc(OC3CC4CC(F)(F)C(C3)N4)nn2)c2[nH]ncc2c1-c1cn[nH]c1 (centres unmarked) [Compound 313, 7-[6-({6,6-difluoro-8-azabicyclo[3.2.1]octan-3-yl}oxy)pyridazin-3-yl]-5-fluoro-4-(1H-pyrazol-4-yl)-1H-indazole]?
A: efflux ratio at 2 h, 1 μM [1]: < 1.5; IC50 (SMN2): < 100 nM

Q: What does the source list for Fc1cc(-c2ccc(O[C@@H]3C[C@H]4CC[C@@H](C3)N4)nn2)c2sncc2c1-c1cn[nH]c1 [Compound 327]?
A: Papp at 2 h, 1 μM [1]: 2 to 6 ×10⁻⁶ cm/s; efflux ratio at 2 h, 1 μM [1]: > 5; IC50 (SMN2): < 100 nM

Q: For COc1cc(-c2ccc(-c3ccc(N(C)C4CC(C)(C)NC(C)(C)C4)nn3)c3scnc23)cnn1 [Compound 330], which Papp at 2 h, 1 μM [1] is on record?
A: Its Papp at 2 h, 1 μM is 2 to 6 ×10⁻⁶ cm/s.

Q: And the efflux ratio at 2 h, 1 μM [1]?
A: Its efflux ratio at 2 h, 1 μM is greater than 5.

Q: And the IC50 (SMN2)?
A: The IC50 was less than 100 nM.

Q: For CC(C)(C)NC1CCN(c2ccc(-c3ccc(-c4cn[nH]c4)c4ncsc34)nn2)C1 (centres unmarked) [Compound 336], which Papp at 2 h, 1 μM [1] is on record?
A: The Papp at 2 h, 1 μM was 2 to 6 ×10⁻⁶ cm/s.

Q: And the efflux ratio at 2 h, 1 μM [1]?
A: Its efflux ratio at 2 h, 1 μM is greater than 5.

Q: And the IC50 (SMN2)?
A: The IC50 was less than 100 nM.

Q: For c1nc2c(-c3cn[nH]c3)ccc(-c3ccc(N4CCC(NC5CC5)C4)nn3)c2s1 (centres unmarked) [Compound 337], which Papp at 2 h, 1 μM [1] is on record?
A: Its Papp at 2 h, 1 μM is 2 to 6 ×10⁻⁶ cm/s.

Q: What about the efflux ratio at 2 h, 1 μM [1] of the same molecule?
A: The efflux ratio at 2 h, 1 μM was less than 1.5.

Q: What about the IC50 (SMN2) of the same molecule?
A: Its IC50 is 100 to 1000 nM.

Q: For Fc1cc(-c2ccc(N[C@@H]3C[C@H]4CC[C@@H](C3)N4)nn2)c2scnc2c1-c1cn[nH]c1 [Compound 339], which Papp at 2 h, 1 μM [1] is on record?
A: Its Papp at 2 h, 1 μM is less than 2 ×10⁻⁶ cm/s.

Q: And the efflux ratio at 2 h, 1 μM [1]?
A: Its efflux ratio at 2 h, 1 μM is 1.5 to 5.

Q: What about the IC50 (SMN2) of the same molecule?
A: The IC50 was less than 100 nM.

Q: For Cc1ncc(-c2ccc(-c3ccc(O[C@@H]4C[C@H]5CC[C@@H](C4)N5)nn3)c3scnc23)s1 [Compound 348, 7-{6-[(exo)-8-azabicyclo[3.2.1]octan-3-yloxy]pyridazin-3-yl}-4-(2-methyl-1,3-thiazol-5-yl)-1,3-benzothiazole], which Papp at 2 h, 1 μM [1] is on record?
A: The Papp at 2 h, 1 μM was less than 2 ×10⁻⁶ cm/s.

Q: What about the efflux ratio at 2 h, 1 μM [1] of the same molecule?
A: The efflux ratio at 2 h, 1 μM was greater than 5.

Q: And the IC50 (SMN2)?
A: Its IC50 is less than 100 nM.
